Data set [1] relates to Mus musculus. The data set can be described thus: Analgesic activity in Mus musculus Wistar albino (mouse) at 10 mg/kg, po after 3 hr by tail-flick test (reference value: 4 +/- 0.91%). Format: functional.
For data set [2], the system named is Rattus norvegicus. Nature of the data set: Anti-inflammatory activity in Rattus norvegicus (rat) assessed as inhibition of carrageenan-induced paw edema at 20 mg/kg, po measured at 3 hr post carrageenan-challenge (reference value: 3.2 +/- 0.93%). The class given is functional. (The carrageenan paw model is a standard test of acute inflammation.)
Data set [3] relates to Rattus norvegicus. Nature of the data set: Anti-inflammatory activity in Rattus norvegicus (rat) assessed as inhibition of carrageenan-induced paw edema at 10 mg/kg, po measured at 3 hr post carrageenan-challenge (reference value: 3.2 +/- 0.93%). Format: functional.
Data set [4] concerns Rattus norvegicus. Nature of the data set: Anti-inflammatory activity in Rattus norvegicus (rat) assessed as inhibition of carrageenan-induced paw edema at 10 mg/kg, po measured at 2 hr post carrageenan-challenge (reference value: 5.7+/- 0.32%). Format: functional.
Data set [5] deals with Rattus norvegicus. The data set can be described thus: Anti-inflammatory activity in Rattus norvegicus (rat) assessed as inhibition of carrageenan-induced paw edema at 20 mg/kg, po measured at 1 hr post carrageenan-challenge (reference value: 6.1 +/- 0.27%). The class given is functional.
The subject of data set [6] is Mus musculus. Nature of the data set: Analgesic activity in Mus musculus Wistar albino (mouse) at 20 mg/kg, po after 3 hr by tail-flick test (reference value: 4 +/- 0.91%). The class given is functional. A general note: Thermal pain tests record how soon the animal reacts.
For data set [7], the system named is Mus musculus. Nature of the data set: Analgesic activity in Mus musculus Wistar albino (mouse) at 20 mg/kg, po after 2 hr by tail-flick test (reference value: 4 +/- 0.59%). Format: functional.
Data set [8] deals with Mus musculus. The data set can be described thus: Analgesic activity in Mus musculus Wistar albino (mouse) at 10 mg/kg, po after 1 hr by tail-flick test (reference value: 6 +/- 0.49%). Format: functional.
In data set [9] the test system is Mus musculus. The data set can be described thus: Analgesic activity in Mus musculus Wistar albino (mouse) at 20 mg/kg, po after 30 min by tail-flick test (reference value: 2 +/- 0.35%). Format: functional.
Data set [10] has as its system Rattus norvegicus. The data set can be described thus: Anti-inflammatory activity in Rattus norvegicus (rat) assessed as inhibition of carrageenan-induced paw edema at 20 mg/kg, po measured at 30 min post carrageenan-challenge (reference value: 5.1 +/- 0.29%). Format: functional. Conditions: 0.5 h.
Data set [11] deals with Rattus norvegicus. Nature of the data set: Anti-inflammatory activity in Rattus norvegicus (rat) assessed as inhibition of carrageenan-induced paw edema at 20 mg/kg, po measured at 2 hr post carrageenan-challenge (reference value: 5.7+/- 0.32%). The class given is functional.
Data set [12] relates to Mus musculus. The data set can be described thus: Analgesic activity in Mus musculus Wistar albino (mouse) at 10 mg/kg, po after 30 min by tail-flick test (reference value: 2 +/- 0.35%). Format: functional.
In data set [13] the test system is Rattus norvegicus. Nature of the data set: Anti-inflammatory activity in Rattus norvegicus (rat) assessed as inhibition of carrageenan-induced paw edema at 10 mg/kg, po measured at 1 hr post carrageenan-challenge (reference value: 6.1 +/- 0.27%). Format: functional.
Data set [14] relates to Mus musculus. The data set can be described thus: Analgesic activity in Mus musculus Wistar albino (mouse) at 10 mg/kg, po after 2 hr by tail-flick test (reference value: 4 +/- 0.59%). The class given is functional.
The subject of data set [15] is Rattus norvegicus. Nature of the data set: Anti-inflammatory activity in Rattus norvegicus (rat) assessed as inhibition of carrageenan-induced paw edema at 10 mg/kg, po measured at 30 min post carrageenan-challenge (reference value: 5.1 +/- 0.29%). The class given is functional. To be noted: 0.5 h.
Data set [16] concerns Rattus norvegicus. Nature of the data set: Gastrointestinal toxicity in Rattus norvegicus Wistar albino (rat) assessed as ulcer index at 20 mg/kg, ip administered QD for 3 days measured on day 4 (reference value: 0.15 +/- 0.32). To be noted: in vivo, 72 h. The class given is organism-based. Also on record: dose 20 mg/kg, route intraperitoneal.
Data set [17] relates to Mus musculus. Nature of the data set: Analgesic activity in Mus musculus Wistar albino (mouse) at 20 mg/kg, po after 1 hr by tail-flick test (reference value: 6 +/- 0.49%). The class given is functional.

Each structure is given as a SMILES string.

A word on the inhibition in vivo: it is the change of the read-out against control, counted positive when it falls. As to `O=c1c2ccccc2nc(NN=C2CCCCC2)n1Cc1ccccc1`, the Activity turned out to be 34% in the data set with Mus musculus [1]; 41% in the data set with Mus musculus [6]; 61% with Mus musculus [7]; 46% with Mus musculus [8]; 51% in the data set with Mus musculus [9]; 42% with Mus musculus [12]. In addition, the results for the Activity in the data set with Mus musculus [14] and in the data set with Mus musculus [17] were 54% and 58%, respectively. Moreover, the inhibition in vivo at 20 mg/kg with Rattus norvegicus [2] was found to be 32%; with Rattus norvegicus [5], 52%; in the data set on Rattus norvegicus [10] it was 45%; in the data set with Rattus norvegicus [11], 58%. Also, the inhibition in vivo at 10 mg/kg in the data set with Rattus norvegicus [3] was 25%; in the data set on Rattus norvegicus [4] it was 45%; in the data set with Rattus norvegicus [13], 38%; with Rattus norvegicus [15], 36%. For the same compound, the UI in the data set with Rattus norvegicus [16] was 0.59.

Regarding `C/C(=N\Nc1nc2ccccc2c(=O)n1Cc1ccccc1)c1ccccc1`, the Activity in the data set with Mus musculus [1] amounted to 30%; in the data set with Mus musculus [6] it was 37%; with Mus musculus [7] it was 69%; in the data set with Mus musculus [8] it was 47%; in the data set with Mus musculus [9] it was 57%; in the data set on Mus musculus [12] it was 45%. Besides, the Activity with Mus musculus [14] is given as 57%; in the data set on Mus musculus [17], 62%. The inhibition in vivo at 20 mg/kg was 33% in the data set with Rattus norvegicus [2], 53% in the data set on Rattus norvegicus [5], 48% in the data set with Rattus norvegicus [10] and 58% in the data set with Rattus norvegicus [11]. The inhibition in vivo at 10 mg/kg in the data set with Rattus norvegicus [3] was 27%; in the data set with Rattus norvegicus [4] it was 46%; in the data set with Rattus norvegicus [13], 41%; with Rattus norvegicus [15], 40%. Besides, the UI with Rattus norvegicus [16] is listed as 0.6.

As to `O=C1Nc2ccccc2/C1=N\Nc1nc2ccccc2c(=O)n1Cc1ccccc1`, the Activity with Mus musculus [1] was determined as 30%; with Mus musculus [6], 35%; with Mus musculus [7], 61%; with Mus musculus [8], 46%; in the data set on Mus musculus [9], 52%; with Mus musculus [12], 45%. The values for the Activity in the data set on Mus musculus [14] and in the data set with Mus musculus [17] were 48% and 57%, respectively. In addition, the inhibition in vivo at 20 mg/kg in the data set on Rattus norvegicus [2] amounted to 32%; in the data set on Rattus norvegicus [5], 45%; in the data set on Rattus norvegicus [10], 40%; in the data set with Rattus norvegicus [11], 51%. Also, the inhibition in vivo at 10 mg/kg in the data set with Rattus norvegicus [3] is 25%; with Rattus norvegicus [4] it was 42%; with Rattus norvegicus [13], 38%; in the data set with Rattus norvegicus [15], 36%. For the same compound, the UI with Rattus norvegicus [16] was 0.62.

As to `O=c1c2ccccc2nc(N/N=C/c2ccccc2)n1Cc1ccccc1`, the Activity came to 31% in the data set on Mus musculus [1]; 41% in the data set on Mus musculus [6]; 59% in the data set on Mus musculus [7]; 48% with Mus musculus [8]; 51% in the data set on Mus musculus [9]; 45% in the data set on Mus musculus [12]. Besides, the results for the Activity in the data set with Mus musculus [14] and in the data set on Mus musculus [17] were 48% and 59%, respectively. The inhibition in vivo at 20 mg/kg in the data set on Rattus norvegicus [2] turned out to be 35%; in the data set with Rattus norvegicus [5], 45%; in the data set on Rattus norvegicus [10], 41%; in the data set with Rattus norvegicus [11], 47%. Also, the inhibition in vivo at 10 mg/kg is 27% in the data set with Rattus norvegicus [3], 40% with Rattus norvegicus [4], 39% with Rattus norvegicus [13] and 35% in the data set with Rattus norvegicus [15]. In addition, the UI in the data set on Rattus norvegicus [16] was found to be 0.64.

The values above are taken from ChEMBL document CHEMBL3046395, “Synthesis and pharmacological investigation of novel 3-(benzyl)-2-substituted amino-3H-quinazolin-4-ones as analgesic and anti-inflammatory agents” (Med Chem Res, 2008).
